According to patent US20120059011A1, “PHARMACEUTICAL COMPOSITIONS OF COMBINATIONS OF DIPEPTIDYL PEPTIDASE-4 INHIBITORS WITH PIOGLITAZONE” (priority 2009, published 2012):
Where a name gives a salt, the structure may show the parent alone.

Experiment: chemical stability of pioglitazone HCl with lubricants (disproportionation to free base)
Type: physicochemical
Conditions: in contact with lubricants, such as magnesium stearate and sodium stearyl fumarate
Protocol: The pharmaceutical compositions of the present invention are prepared by wet processing methods. In one embodiment the pharmaceutical compositions are prepared by wet granulation methods, such as fluid bed granulation or high-shear granulation. In a class of this embodiment, the pharmaceutical compositions are prepared by fluid-bed granulation. Fluid bed granulation processing has the advantage of affording tablets with higher diametric strength. Further, wet processing methods utilizing an intragranular portion containing Sitagliptin phosphate monohydrate, Pioglitazone HCl, a binding agent, and optionally a disintegrant, enhance the chemical stability of Sitagliptin phosphate monohydrate and pioglitazone HCl. […] The fluid bed granulation method utilizing an intragranular portion containing Pioglitazone HCl, Sitagliptin phosphate monohydrate, a binding agent, and optionally a disintegrant, minimizes the disproportionation of Pioglitazone HCl to the pioglitazone free base.

With `CCc1ccc(CCOc2ccc(CC3SC(=O)NC3=O)cc2)nc1` (racemic) [Pioglitazone HCl, [(±)-5-[[4-[2-(5-ethyl-2-pyridinyl)ethoxy]phenyl]-methyl]-2,4-]thiazolidinedione monohydrochloride] the “disproportionation of Pioglitazone HCl to the Pioglitazone free base” value was “react with lubricants”.
